The results in this text go back to patent US10844044B2 (Vanderbilt University, priority 2018, dated 2020).

Test [1] has as its system MV4:11 human cancer cell lines. In words: Anti-proliferative activity, CellTiter-Glo viability assay, 7 day protocol. It counts as cell-based. To be noted: MV4:11 cells, 7 day incubation, read-out: GI50 on cellular proliferation of MV4:11 human cancer cell lines. The method, boiled down: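 MV4:11 cells seeded at 3600 cells/ml and exposed to compounds for 7 days, 0.1% DMSO final. Viability measured by CellTiter-Glo luminescence. GI50 from three biological replicates, each in technical triplicate, given as mean ± S.E.M.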
A general note: Cellular ATP, detected with luciferase, serves as a proxy for viable cell number.

Another test addresses WDR5 (Homo sapiens (Human), UniProt P61964). As to the kind of experiment: TR-FRET binding assay (displacement of 10mer-Thr-FAM probe from WDR5). To be noted: read-out: Ki for Inhibition of WDR5 by TR-FRET assay.
Setting [2] is: TR-FRET, 10mer-Thr-FAM probe, WDR5-His tag 2 nM, pH 7.0.

Read-outs that look alike come from different tables or passages of the source.

In general, Ki refers to the dissociation constant of the complex between target and ligand, obtained from inhibition or displacement. For `COc1cc(OC)cc(C(C)NC(=O)c2cc(Cn3ccn(C)c3=N)cc(-c3ccc(F)cc3C)n2)c1` (stereo not drawn) [Example 355, N-(1-(3,5-Dimethoxyphenyl)ethyl)-6-(4-fluoro-2-methylphenyl)-4-((2-imino-3-methyl-2,3-dihydro-1H-imidazol-1-yl)methyl)picolinamide], the GI50 in test [1] (Homo sapiens, MV4-11, 168 h) was determined as 1190 nM. Also, the Ki at WDR5 (setting [2]) is 3.57 nM.
As for `Cc1cc([C@@H](NC(=O)c2cc(CN3CCOC3=N)cc(-c3cn(C)nc3C(F)(F)F)n2)C2CC2)ccc1F` [Example 361, (S)—N-(Cyclopropyl(4-fluoro-3-methylphenyl)methyl)-4-((2-iminooxazolidin-3-yl)methyl)-6-(1-methyl-3-(trifluoromethyl)-1H-pyrazol-4-yl)picolinamide], the GI50 in test [1] (Homo sapiens, MV4-11, 168 h) came to 940 nM. Besides, the Ki at WDR5 (setting [2]) is 0.77 nM.
In the case of `Cc1ccnc(C(NC(=O)c2cc(Cn3ccn(C)c3=N)cc(-c3ncccc3C(F)(F)F)c2)C2CC2)c1` (stereo not drawn) [Example 364, N-(Cyclopropyl(4-methylpyridin-2-yl)methyl)-3-((2-imino-3-methyl-2,3-dihydro-1H-imidazol-1-yl)methyl)-5-(3-(trifluoromethyl)pyridin-2-yl)benzamide], in test [1] (Homo sapiens, MV4-11, 168 h), the GI50 turned out to be 7800 nM. Also, the Ki at WDR5 (setting [2]) is 4.3 nM.
As to `COc1cc(CNC(=O)c2cc(Cn3ccn(C)c3=N)nc(-c3ccc(F)cc3C)c2)cc(OC)c1` [Example 365, N-(3,5-Dimethoxybenzyl)-2-(4-fluoro-2-methylphenyl)-6-((2-imino-3-methyl-2,3-dihydro-1H-imidazol-1-yl)methyl)isonicotinamide], the GI50 in test [1] (Homo sapiens, MV4-11, 168 h) turned out to be 6000 nM. Moreover, the Ki on WDR5 (setting [2]) amounted to 0.55 nM.
The matching figures for `COc1ccnc(CNC(=O)c2ccc(F)c(Cn3ccn(C)c3=N)c2)c1` [Example 366, 4-Fluoro-3-((2-imino-3-methyl-2,3-dihydro-1H-imidazol-1-yl)methyl)-N-((4-methoxypyridin-2-yl)methyl)benzamide]: 30000 nM and 13 nM.
Turning to “N—((S)-Cyclopropyl(4-fluoro-3-methylphenyl)methyl)-2-ethoxy-5-((3-fluoro-2-iminopyridin-1(2H)-yl)methyl)-3-(1-methyl-3-(trifluoromethyl)-1,3-dihydro-2λ2-pyrazol-4-yl)benzamide [Example 348]”, in test [1], the GI50 was less than 100 nM. For the same compound, the Ki at WDR5 is less than 0.1 nM.
